Entries after “also recorded” stand apart in the source; their conditions may differ.
Assays:
Type in all cases: in vivo, Long Evans rat
IGF-II receptor = target: T1, IGF-II receptor (Rattus norvegicus, UniProt G3V824); assay: ic-STZ ± PPAR agonist: equilibrium and saturation binding to IGF-II receptors in the brain; conditions: for BMAX, IGF-II receptor saturation binding in brains of treated rats: [125I]-IGF-II tracer, pooled brain membranes, 4 weeks after ic-STZ ± IP PPAR agonist
T1 construct: from tissue; host or cells: rat brain (temporal lobe)
T1 sequence (G3V824 36-2481): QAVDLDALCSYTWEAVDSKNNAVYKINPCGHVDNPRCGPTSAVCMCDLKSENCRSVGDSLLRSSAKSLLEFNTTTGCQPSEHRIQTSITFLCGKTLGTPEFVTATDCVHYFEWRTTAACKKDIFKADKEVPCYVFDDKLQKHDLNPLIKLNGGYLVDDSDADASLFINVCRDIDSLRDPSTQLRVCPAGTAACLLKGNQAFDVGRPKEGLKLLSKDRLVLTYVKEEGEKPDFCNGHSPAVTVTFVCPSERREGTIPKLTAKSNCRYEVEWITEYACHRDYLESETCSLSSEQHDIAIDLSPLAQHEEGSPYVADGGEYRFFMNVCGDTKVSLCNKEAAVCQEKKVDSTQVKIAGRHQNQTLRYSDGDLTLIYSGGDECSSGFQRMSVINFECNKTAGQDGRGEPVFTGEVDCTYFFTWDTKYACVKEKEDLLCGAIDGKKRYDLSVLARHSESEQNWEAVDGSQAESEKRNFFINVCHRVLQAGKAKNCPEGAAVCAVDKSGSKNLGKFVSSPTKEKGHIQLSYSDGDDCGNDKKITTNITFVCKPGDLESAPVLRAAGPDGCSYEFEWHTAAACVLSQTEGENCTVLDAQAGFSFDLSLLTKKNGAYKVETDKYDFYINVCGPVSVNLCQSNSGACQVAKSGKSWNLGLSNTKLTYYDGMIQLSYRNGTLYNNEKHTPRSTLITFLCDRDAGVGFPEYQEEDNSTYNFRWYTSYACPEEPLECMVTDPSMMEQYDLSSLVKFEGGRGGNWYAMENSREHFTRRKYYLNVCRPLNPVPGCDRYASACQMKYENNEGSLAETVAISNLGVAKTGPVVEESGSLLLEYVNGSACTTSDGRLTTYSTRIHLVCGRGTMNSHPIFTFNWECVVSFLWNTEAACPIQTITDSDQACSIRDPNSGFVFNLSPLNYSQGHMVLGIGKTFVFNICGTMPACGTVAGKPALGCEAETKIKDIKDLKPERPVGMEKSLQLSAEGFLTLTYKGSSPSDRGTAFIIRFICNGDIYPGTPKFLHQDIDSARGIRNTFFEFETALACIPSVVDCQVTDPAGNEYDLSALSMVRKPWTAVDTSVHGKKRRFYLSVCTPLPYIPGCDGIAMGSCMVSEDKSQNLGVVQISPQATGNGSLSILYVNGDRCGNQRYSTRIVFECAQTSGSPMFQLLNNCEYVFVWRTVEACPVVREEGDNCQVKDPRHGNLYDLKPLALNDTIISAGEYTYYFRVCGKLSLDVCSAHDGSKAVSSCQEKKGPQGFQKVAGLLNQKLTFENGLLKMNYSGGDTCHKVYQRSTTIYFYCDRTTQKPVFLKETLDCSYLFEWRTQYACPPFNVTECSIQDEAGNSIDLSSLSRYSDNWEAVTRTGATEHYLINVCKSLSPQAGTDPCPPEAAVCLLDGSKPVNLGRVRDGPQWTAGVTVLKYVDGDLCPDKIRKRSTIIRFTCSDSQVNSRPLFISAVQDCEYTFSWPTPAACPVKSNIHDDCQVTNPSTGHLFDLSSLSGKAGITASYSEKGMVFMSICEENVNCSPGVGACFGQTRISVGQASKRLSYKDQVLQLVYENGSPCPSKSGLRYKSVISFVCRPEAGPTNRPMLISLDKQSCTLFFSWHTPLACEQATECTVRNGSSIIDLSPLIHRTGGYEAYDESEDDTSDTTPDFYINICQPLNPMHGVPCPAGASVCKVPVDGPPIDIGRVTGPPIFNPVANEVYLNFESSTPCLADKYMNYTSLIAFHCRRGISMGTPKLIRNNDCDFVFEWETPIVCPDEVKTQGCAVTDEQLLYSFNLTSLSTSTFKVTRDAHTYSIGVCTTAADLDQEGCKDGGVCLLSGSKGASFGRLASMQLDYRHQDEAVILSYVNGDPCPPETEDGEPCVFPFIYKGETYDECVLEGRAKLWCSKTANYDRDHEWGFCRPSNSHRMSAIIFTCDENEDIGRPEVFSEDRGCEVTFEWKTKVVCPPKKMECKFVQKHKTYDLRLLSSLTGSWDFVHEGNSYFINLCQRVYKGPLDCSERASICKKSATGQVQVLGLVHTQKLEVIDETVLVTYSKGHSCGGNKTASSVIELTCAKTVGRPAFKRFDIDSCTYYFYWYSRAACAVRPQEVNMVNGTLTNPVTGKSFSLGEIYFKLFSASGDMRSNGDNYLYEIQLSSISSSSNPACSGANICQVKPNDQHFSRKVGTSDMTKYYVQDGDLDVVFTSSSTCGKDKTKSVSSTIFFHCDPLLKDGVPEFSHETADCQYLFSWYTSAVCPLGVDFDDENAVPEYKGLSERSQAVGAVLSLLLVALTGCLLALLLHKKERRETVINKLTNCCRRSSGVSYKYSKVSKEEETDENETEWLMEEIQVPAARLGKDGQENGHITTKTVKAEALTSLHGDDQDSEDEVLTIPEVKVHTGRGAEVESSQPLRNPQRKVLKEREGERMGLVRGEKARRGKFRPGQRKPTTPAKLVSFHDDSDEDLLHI
Protocol: (§1) On the same day, sub-sets of the ic-STZ group were given a single intra-peritoneal injection of vehicle (saline), or a PPAR-α (GW7647; 25 ug/Kg), PPAR-δ (L-165,041; 2 μg/Kg), or PPAR-γ (F-L-Leu; 20 μg/Kg) activator (CalBiochem, Carlsbad, Calif.). […] In addition, at 4 weeks of age, memory and learning were evaluated using a Morris Water Maze (R. W. Hickey, M. Akino, S. Strausbaugh, G. M. De Courten-Myers. Use of the Morris water maze and acoustic startle chamber to evaluate neurologic injury after asphyxial arrest in rats. Pediatr Res 39(1) (1996), 77-84). The procedures and use of rats in these experiments were approved by the Lifespan-Rhode Island Hospital IACUC committee.
Membrane protein extracted from fresh frozen brain tissue was used for competitive equilibrium and saturation binding assays. For total binding in equilibrium binding assays, duplicate samples were incubated in 100 μl reactions containing binding buffer (100 mM HEPES, pH 8.0, 118 mM NaCl, 1.2 mM MgSO4, 8.8 mM dextrose, 5 mM KCl, 1% bovine serum albumin) and 100 nCi/ml of [^125I] […] To measure total binding in saturation binding assays, samples from 8-12 brains per group were pooled in equal proportions, and duplicate samples were incubated in 100 μl reactions containing binding buffer and 0.0031 to 1 μCi/ml of [^125I] […] To detect non-specific binding in the equilibrium and saturation binding assays, duplicate reactions were incubated with the same concentrations of radiolabeled tracer plus 0.1 μM unlabeled (cold) competitive ligand. After 16 hours incubation at 4° C., bound radiolabeled tracer was precipitated with bovine gamma globulin and polyethylene glycol 8000. The precipitate (bound ligand) and supernatant (free ligand) fractions were counted in an LKB CompuGamma CS Gamma counter. Specific binding was calculated by subtracting fmols of non-specific binding, i.e. amount bound in the presence of excess cold ligand, from total fmols bound in the absence of unlabeled competitive ligand. GraphPad Prism 4 software (San Diego, Calif.) was used to calculate saturation binding (BMAX) and binding affinity (Kd) for each data set.

[1] = tested on: ic-STZ-induced neurodegeneration; assay: ic-STZ ± PPAR agonist: brain histopathology (H&E); conditions: for preservation of cerebellar cortical architecture (H&E) / preservation of hippocampi and temporal lobes (H&E): 4 weeks after ic-STZ ± single IP PPAR agonist
Protocol: In addition, at 4 weeks of age, memory and learning were evaluated using a Morris Water Maze (R. W. Hickey, M. Akino, S. Strausbaugh, G. M. De Courten-Myers. Use of the Morris water maze and acoustic startle chamber to evaluate neurologic injury after asphyxial arrest in rats. Pediatr Res 39(1) (1996), 77-84). The procedures and use of rats in these experiments were approved by the Lifespan-Rhode Island Hospital IACUC committee.
Histopathological and Immunohistochemical Staining Studies: Whole fresh brains were immersion fixed in Histofix (Amresco, Solon, Ohio) and then sectioned in the coronal plane along standardized landmarks, embedded in paraffin, and processed for histopathological studies. In addition, fresh brains were sectioned in the coronal plane to obtain a ˜3 mm thick slice that flanked the infundibulum. The 3-mm brain slice was snap frozen between two slabs of dry ice, and then stored at −80° C. for later RNA and protein studies. The residual tissue was immersion fixed and processed for histopathological studies. […] As negative controls for the immunostaining reactions, either the primary antibody was omitted or non-relevant monoclonal antibody to Hepatitis B virus was used in place of the relevant antibody. Immunoreactivity was detected using the avidin-biotin horseradish peroxidase complex method (S. M. de la Monte, T. Luong, T. R. Neely, D. Robinson, J. R. Wands. Mitochondrial DNA damage as a mechanism of cell loss in Alzheimer's disease. Lab Invest 80(8) (2000), 1323-35). All sections were examined under code.

learning and memory = assay: Morris Water Maze learning and memory test; conditions: for behavior, learning and memory during the training period: 4-week old rats; for mean latency period to arrive at the hidden platform relative to control: Trial Day 4 / final day of testing
Protocol: as §1
Morris Water Maze Behavioral Tests: A standard Morris Water Maze was used to measure learning (R. W. Hickey, M. Akino, S. Strausbaugh, G. M. De Courten-Myers. Use of the Morris water maze and acoustic startle chamber to evaluate neurologic injury after asphyxial arrest in rats. Pediatr Res 39(1) (1996), 77-84). On the first day of testing, the rats were oriented to the water maze and educated about the location of the platform. On the 3 subsequent days of testing, the platform was submerged just below the surface, and the rats were tested for their learning and memory of the platform location by measuring the latency period required to reach and recognize the platform. The rats were allowed 120 seconds to locate the platform, after which they were guided to it. After landing on the platform, the rats were allowed to orient themselves for 15 seconds prior to being rescued. The rats were tested three times each day, with 30 min. intervals between trials. The rats were placed in the same quadrant of the water maze for every trial, except for trials 2 and 3 on the final day testing, when the start locations were randomized to test mastery of platform memory.

With `CCCc1c(OCCCOc2ccc(OCC(=O)O)cc2)ccc(C(C)=O)c1O` [PPAR-δ agonist, L-165,041] as the molecule, how does the “BMAX, IGF-II receptor saturation binding in brains of treated rats” value (from here on “BMAX, IGF-II receptor saturation binding”) (IGF-II receptor) read?
Its value is 20.22 fmol/mg protein.

What about the IGF-II receptor binding (IGF-II receptor; cerebellum) of the same molecule?
The IGF-II receptor binding was “significantly increased”.

And the “BMAX for IGF-II receptor (in words) vs ic-STZ group” value (IGF-II receptor; rat, in vivo)?
The value was “increased”.

And the “preservation of cerebellar cortical architecture (H&E)” value [1]?
The value was “moderately effective; also recorded: markedly reduced”.

What about the “preservation of hippocampi and temporal lobes (H&E)” value [1] of the same molecule?
Its value is “most striking therapeutic rescue”.

And the “share of temporal cortex thickness spanned by the horizontal scale bar” value ([1]; FIG. 25A-E, control 30%)?
Its value is 30%.

And the “behavior, learning and memory during the training period” value (learning and memory)?
The value was “no detectable abnormalities in behavior, learning, or memory”.

What about the “mean latency period to arrive at the hidden platform relative to control” value (learning and memory) of the same molecule?
Its value is “no significant difference”.

Which “BMAX, IGF-II receptor saturation binding” value (IGF-II receptor) does the source give for `CC(C)(Sc1ccc(CCN(CCCCC2CCCCC2)C(=O)NC2CCCCC2)cc1)C(=O)O` [PPAR-α agonist, GW7647] here?
The value was 7.291 fmol/mg protein.

And the “preservation of cerebellar cortical architecture (H&E)” value [1]?
The value was “moderately effective; also recorded: markedly reduced”.

What about the “preservation of hippocampi and temporal lobes (H&E)” value [1] of the same molecule?
The value was “less effective than the PPAR-δ agonist”.

And the “behavior, learning and memory during the training period” value (learning and memory)?
The value was “delayed learning and impaired memory”.

What about the “mean latency period to arrive at the hidden platform relative to control” value (learning and memory) of the same molecule?
The value was “significantly higher”.

Which “BMAX, IGF-II receptor saturation binding” value (IGF-II receptor) does the source give for `CC(C)C[C@H](NC(=O)OCC1c2ccccc2-c2ccccc21)C(=O)O` [PPAR-γ agonist, F-L-Leu] here?
Its value is 9.223 fmol/mg protein.

And the “preservation of cerebellar cortical architecture (H&E)” value [1]?
Its value is “ineffective”.

What about the “preservation of hippocampi and temporal lobes (H&E)” value [1] of the same molecule?
Its value is “least effective”.

And the “behavior, learning and memory during the training period” value (learning and memory)?
Its value is “delayed learning and impaired memory”.

And the “mean latency period to arrive at the hidden platform relative to control” value (learning and memory)?
The value was “significantly higher”.

For `CN(N=O)C(=O)NC1C(O)OC(CO)C(O)C1O` (centres unmarked) [STZ], which “BMAX, IGF-II receptor saturation binding” value (IGF-II receptor) is on record?
The value was 6.431 fmol/mg protein.

And the “binding to IGF-II receptors” value (IGF-II receptor; temporal lobe and cerebellum)?
The value was “reduced”.

And the “mean latency period vs control” value (learning and memory; first 3 days of testing)?
Its value is “approximately twice as long as control”.

And the “mean latency vs control” value (learning and memory; fourth day)?
Its value is “no significant differences”.

And the “learning and memory in Morris Water Maze” value (learning and memory; rats surviving 4 weeks or longer, preliminary studies)?
Its value is “striking impairments in learning and memory”.

From patent US7833513B2, “Treatment of Alzheimer's Disease” (Rhode Island Hospital, priority 2004, dated 2010)
